# Molecular target: T1, Chk1 (Homo sapiens, UniProt O14757)
# T1 construct: purchased Upstate Biotechnology
# T1 sequence (O14757 1-476): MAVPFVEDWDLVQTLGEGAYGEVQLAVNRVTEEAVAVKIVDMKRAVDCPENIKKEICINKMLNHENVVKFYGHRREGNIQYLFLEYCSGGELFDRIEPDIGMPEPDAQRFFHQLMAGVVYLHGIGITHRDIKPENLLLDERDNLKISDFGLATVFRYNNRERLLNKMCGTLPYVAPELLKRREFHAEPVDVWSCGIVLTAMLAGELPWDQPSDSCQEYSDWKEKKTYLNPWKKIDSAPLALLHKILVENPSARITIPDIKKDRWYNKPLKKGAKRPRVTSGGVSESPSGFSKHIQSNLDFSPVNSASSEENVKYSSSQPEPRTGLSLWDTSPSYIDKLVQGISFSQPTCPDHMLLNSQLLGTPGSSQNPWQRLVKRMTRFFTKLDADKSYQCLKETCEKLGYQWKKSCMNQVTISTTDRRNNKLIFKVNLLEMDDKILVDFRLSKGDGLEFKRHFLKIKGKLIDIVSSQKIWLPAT
# Experiment: Chk1 kinase assay: incorporation of γ-33P ATP into immobilized myelin basic protein
# Assay type: biochemical
# Conditions: Table 11, Chk1 only; class symbols A-D; read-out: Chk1 IC50
# Procedure, shortened: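 Immobilized-MBP radiometric kinase assay, room temperature for 1 h; ATP 10 μM (Chk1, 10 nM enzyme) or 30 μM (Chk2, 20 nM enzyme) with 33P tracer. Values are IC50s, with Ki derived from them.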
row,IC50 [nM],Structure (SMILES)
1,< 50,"Cc1ccc(F)c(CNC(=O)c2cccc(-c3cnc(N)c(C(=O)N[C@H]4CCCNC4)n3)c2)c1Cl [Example 1013, 3-amino-6-[3-({[(2-chloro-6-fluoro-3-methylphenyl)methyl]amino}carbonyl)phenyl]-N-[(3S)-piperidin-3-yl]pyrazine-2-carboxamide]"
2,< 50,"Nc1ncc(-c2cccc(CNC(=O)c3ccc(-c4ccccc4)cc3)c2)nc1C(=O)N[C@H]1CCCNC1 [Example 933, 3-amino-6-(3-{[(biphenyl-4-ylcarbonyl)amino]methyl}phenyl)-N-[(3S)-piperidin-3-yl]pyrazine-2-carboxamide]"
3,50 to 1000,"Nc1ncc(-c2cccc(C(=O)NCc3cc(F)cc(F)c3F)c2)nc1C(=O)N[C@H]1CCNC1 [Example 816, 3-amino-N-[(3S)-pyrrolidin-3-yl]-6-[3-({[(2,3,5-trifluorophenyl)methyl]amino}carbonyl)phenyl]pyrazine-2-carboxamide]"
4,< 50,"Nc1ncc(-c2cccc(C(=O)NCc3ccc(F)c(F)c3F)c2)nc1C(=O)N[C@H]1CCCNC1 [Example 1016, 3-amino-N-[(3S)-piperidin-3-yl]-6-[3-({[(2,3,4-trifluorophenyl)methyl]amino}carbonyl)phenyl]pyrazine-2-carboxamide]"
5,< 50,"Nc1ncc(-c2cccc(C(=O)NCc3ccc(F)c(F)c3)c2)nc1-c1nc([C@H]2CCCNC2)n[nH]1 [Example 867, 3-(5-amino-6-{3-[(3S)-piperidin-3-yl]-1H-1,2,4-triazol-5-yl}pyrazin-2-yl)-N-[(3,4-difluorophenyl)methyl]benzamide]"
6,< 50,"Nc1ncc(-c2cccc(C(=O)N[C@H]3CCc4ccccc43)c2)nc1C(=O)NC1CCCCNC1 (stereo partly drawn) [Example 967, 3-amino-N-azepan-3-yl-6-(3-{[(1S)-2,3-dihydro-1H-inden-1-ylamino]carbonyl}phenyl)pyrazine-2-carboxamide]"
7,< 50,"COc1ccc2c(CC(=O)Nc3cccc(-c4cnc(N)c(C(=O)N[C@H]5CCCNC5)n4)c3)coc2c1 [Example 911, 3-amino-6-[3-({[6-(methyloxy)-1-benzofuran-3-yl]acetyl}amino)phenyl]-N-[(3S)-piperidin-3-yl]pyrazine-2-carboxamide]"
8,< 50,"Nc1ncc(-c2cccc(C(=O)NCc3cc(F)cc(F)c3)c2)nc1C(=O)N[C@H]1CCCCNC1 [Example 1009, 3-amino-N-[(3S)-azepan-3-yl]-6-[3-({[(3,5-difluorophenyl)methyl]amino}carbonyl)phenyl]pyrazine-2-carboxamide]"
9,< 50,"Nc1ncc(-c2cccc(CNC(=O)C3COc4ccccc4O3)c2)nc1C(=O)N[C@H]1CCCNC1 (stereo partly drawn) [Example 939, 3-amino-6-(3-{[(2,3-dihydro-1,4-benzodioxin-2-ylcarbonyl)amino]methyl}phenyl)-N-[(3S)-piperidin-3-yl]pyrazine-2-carboxamide]"
10,< 50,"Cc1ccc(CNC(=O)c2cccc(-c3cnc(N)c(C(=O)N[C@H]4CCCNC4)n3)c2)c(F)c1F [Example 858, 3-amino-6-[3-({[(2,3-difluoro-4-methylphenyl)methyl]amino}carbonyl)phenyl]-N-[(3S)-piperidin-3-yl]pyrazine-2-carboxamide]"
11,< 50,"Nc1ncc(-c2cccc(O)c2)nc1C(=O)N[C@H]1CCCNC1 [Example 840, 3-amino-6-(3-hydroxyphenyl)-N-[(3S)-piperidin-3-yl]pyrazine-2-carboxamide]"
12,< 50,"Cc1cc(C(=O)NCc2cccc(-c3cnc(N)c(C(=O)N[C@H]4CCCNC4)n3)c2)no1 [Example 989, 3-amino-6-[3-({[(5-methylisoxazol-3-yl)carbonyl]amino}methyl)phenyl]-N-[(3S)-piperidin-3-yl]pyrazine-2-carboxamide]"

# Same assay, conditions: Table 11; Chk1 only; read-out: Chk1 IC50
row,Structure (SMILES),IC50 [nM]
1,"CNC(=O)c1nc(-c2cccc(C(=O)NNc3cc(F)ccc3F)c2)cnc1N [Example 430, 3-amino-6-(3-{[2-(2,5-difluorophenyl)hydrazino]carbonyl}phenyl)-N-methylpyrazine-2-carboxamide]",50 to 1000
2,"CNC(=O)c1nc(-c2cccc(CNC(CN3CCOCC3)c3ccccc3)c2)cnc1N (centres unmarked) [Example 517, 3-amino-N-methyl-6-(3-{[(2-morpholin-4-yl-1-phenylethyl)amino]methyl}phenyl)pyrazine-2-carboxamide]",1000 to 10000
3,"CNC(=O)c1nc(-c2cccc(CN[C@H](C(=O)OC)c3ccccc3)c2)cnc1N [Example 429, methyl (2S)-{[(3-{5-amino-6-[(methylamino)carbonyl]pyrazin-2-yl}phenyl)methyl]amino}(phenyl)ethanoate]",1000 to 10000
4,"CNC(=O)c1nc(-c2cccc(CNC3CCc4cc(O)ccc43)c2)cnc1N (centres unmarked) [Example 513, 3-amino-6-(3-{[(5-hydroxy-2,3-dihydro-1H-inden-1-yl)amino]methyl}phenyl)-N-methylpyrazine-2-carboxamide]",50 to 1000
5,"Nc1nccc(-c2nc(-c3cccc(C(=O)NCc4ccccc4)c3)cnc2N)n1 [Example 608, 3-[5-amino-6-(2-aminopyrimidin-4-yl)pyrazin-2-yl]-N-(phenylmethyl)benzamide]",1000 to 10000
6,"CNC(=O)c1nc(-c2cccc(CNC3CCc4c(-c5ccccc5)cccc43)c2)cnc1N (centres unmarked) [Example 493, 3-amino-N-methyl-6-(3-{[(4-phenyl-2,3-dihydro-1H-inden-1-yl)amino]methyl}phenyl)pyrazine-2-carboxamide]",< 50
7,"CNC(=O)c1nc(-c2cccc(-c3nc(-c4ccccc4)c[nH]3)c2)cnc1N [Example 442, 3-amino-N-methyl-6-[3-(4-phenyl-1H-imidazol-2-yl)phenyl]pyrazine-2-carboxamide]",50 to 1000
8,"C/C(=N\N1CCN(C)CC1)c1nc(-c2cccc(C(=O)NCc3ccccc3)c2)cnc1N [Example 642, 3-{5-amino-6-[(1E)-N-(4-methylpiperazin-1-yl)ethanimidoyl]pyrazin-2-yl}-N-(phenylmethyl)benzamide]",50 to 1000

# More lines, now with the values ahead:
row,IC50 [nM],Structure (SMILES)
1,50 to 1000,"Nc1ncc(-c2cccc(C(=O)NCc3ccccc3)c2)nc1C(=O)NC1CCNCC1 [Example 564, 3-amino-6-(3-{[(phenylmethyl)amino]carbonyl}phenyl)-N-piperidin-4-ylpyrazine-2-carboxamide]"
2,50 to 1000,"CC(C)(NC(=O)c1cccc(-c2cnc(N)c(C(=O)N[C@H]3CCNC3)n2)c1)c1ccccc1 [Example 801, 3-amino-6-(3-{[(1-methyl-1-phenylethyl)amino]carbonyl}phenyl)-N-[(3S)-pyrrolidin-3-yl]pyrazine-2-carboxamide]"

# Same assay, conditions: read-out: Chk1 IC50
row,Structure (SMILES),IC50 [nM]
1,"CNC(=O)c1nc(-c2cccc(C(=O)NCc3cc(C)ccc3C)c2)cnc1N [Example 261, 3-amino-6-[3-({[(2,5-dimethylphenyl)methyl]amino}carbonyl)phenyl]-N-methylpyrazine-2-carboxamide]",50 to 1000
2,"CNC(=O)c1nc(-c2ccc(C(C)=O)cc2)cnc1N [Example 79, 6-(4-acetylphenyl)-3-amino-N-methylpyrazine-2-carboxamide]",1000 to 10000
3,"CNC(=O)c1nc(-c2cccc(C(=O)NCc3c(C)cccc3Cl)c2)cnc1N [Example 250, 3-amino-6-[3-({[(2-chloro-6-methylphenyl)methyl]amino}carbonyl)phenyl]-N-methylpyrazine-2-carboxamide]",50 to 1000
4,"CNC(=O)c1nc(-c2cccc(C(=O)NCCc3ccccc3Cl)c2)cnc1N [Example 129, 3-amino-6-[3-({[2-(2-chlorophenyl)ethyl]amino}carbonyl)phenyl]-N-methylpyrazine-2-carboxamide]",50 to 1000
5,"CNC(=O)c1nc(-c2cccc(CN[C@H]3CCc4ccccc43)c2)cnc1N [Example 418, 3-amino-6-(3-{[(1S)-2,3-dihydro-1H-inden-1-ylamino]methyl}phenyl)-N-methylpyrazine-2-carboxamide]",< 50
6,"CNC(=O)c1nc(-c2noc(C3CCCC3)n2)cnc1N [Example 67, 3-amino-6-(5-cyclopentyl-1,2,4-oxadiazol-3-yl)-N-methylpyrazine-2-carboxamide]",≥ 10000
7,"CNC(=O)c1nc(-c2cccc(C(=O)NCc3cccc(N)c3)c2)cnc1N [Example 232, 3-amino-6-[3-({[(3-aminophenyl)methyl]amino}carbonyl)phenyl]-N-methylpyrazine-2-carboxamide]",50 to 1000
8,"CNC(=O)c1nc(-c2cccc(C(=O)NCc3ccc4c(c3)OCCO4)c2)cnc1N [Example 205, 3-amino-6-(3-{[(2,3-dihydro-1,4-benzodioxin-6-ylmethyl)amino]carbonyl}phenyl)-N-methylpyrazine-2-carboxamide]",< 50

# Other lines, results leading:
row,IC50 [nM],Structure (SMILES)
1,50 to 1000,"CNC(=O)c1nc(-c2cccc(C(=O)NCc3ccc(F)cc3C(F)(F)F)c2)cnc1N [Example 405, 3-amino-6-{3-[({[4-fluoro-2-(trifluoromethyl)phenyl]methyl}amino)carbonyl]phenyl}-N-methylpyrazine-2-carboxamide]"
2,50 to 1000,"CNC(=O)c1nc(-c2cccc(C(=O)NCc3ccc(F)cc3F)c2)cnc1N [Example 226, 3-amino-6-[3-({[(2,4-difluorophenyl)methyl]amino}carbonyl)phenyl]-N-methylpyrazine-2-carboxamide]"
